# Test results from patent publication US9994915B2, “miR-211 expression and related pathways in human melanoma” (Sanford-Burnham Medical Research Institute, priority 2010, dated 2018).
# How the values were obtained:
# KCNMA1 protein = experiment: western blot of KCNMA1 protein in WM1552C lines; assay type: cell-based, human; conditions: stably transfected WM1552C lines
# Method: qRT-PCR analyses were then run to determine whether the induced expression of miR-211 in melanoma cells could reduce KCNMA1 transcript levels. […] To further address whether KCNMA1 mRNA levels reflected KCNMA1 protein expression, a western blot analysis was performed looking for KCNMA1 in cell extracts obtained from: 1) WM1552C, 2) WM1552C/VO (WM1552C cells with a stably-incorporated empty expression vector), 3) WM1552C/211(400), 4) WM1552C/211(800), and 5) WM1552C/KC KO (WM1552C cells with a stably-expressing shRNA against the KCNMA1 mRNA) (FIG. 6C). […] To further confirm our observations, we measured the correlation between miR-211 expression and KCNMA1 protein levels (FIG. 6D). […] To confirm that this expression correlation occurred in non-transformed cells in addition to cancerous cell lines, the effect of miR-211 inhibition on the expression of KCNMA1 in melanocytes was examined. Melanocytes were transfected with anti-miR-211 inhibitors (Exiqon) and the protein expression of KCNMA1 was measured. […]
# 2.5×10^5 cells WM1552C/211(800) cells were seeded into wells of a 6-well plate. […] After 48 hours, the cells were harvested by trypsinization and counted using an automated cell counter (Cellometer®, Nexcelom Bioscience). […]
# A KCNMA1 constitutively-expressing plasmid was transiently transfected into WM1552C/211(800) cells. […] KCNMA1 protein expression levels were then detected by KCNMA1 antibody. […]
# A375 melanoma cells = experiment: oxygen consumption, Seahorse XF96 Analyzer; assay type: cell-based, human; conditions: miR-211-expressing A375 cells
# Method: Deep-sequencing (RNA-seq) and proteomics (mass spectrometry) data from two melanoma cell lines A375 and W[…], each expressing miR-211 or the empty vector, were generated. […] Energy consumption was investigated in miR-211-expressing cells. Using the Seahorse XF96 Analyzer, it was determined that miR-211-expressing melanoma cells (A375) consumed nearly double the amount of oxygen as control cells expressing the empty vector (FIG. 35). […] Finally, we measured the level of hypoxia-inducible factor 1 alpha (HIF-1α) in miR-211-expressing cells. HIF-1α expression was reduced by miR-211 expression which is an indication of cellular respiration changes (FIG. 37).
substance,measurement,setting,value
miR-211: pre-miR-211 sequence stably expressed from plasmid pcDNA4/miR-211 in melanoma cells; mature sequence UUCCCUUUGUCAUCCUUCGCCU (SEQ ID NO: 15) (listed as Homo sapiens),KCNMA1 protein levels compared to WM1552C/VO or untransfected WM1552C,KCNMA1 protein,significantly reduced
same,amount of oxygen consumed vs empty vector control cells,A375 melanoma cells,nearly double
